Measurements taken from article PMC12346198 (Cancers, 2025).
Structures can show the parent of a compound that is named as a salt. Where two headings read alike, the source gives them in different places.

How the values were obtained:
Primary Male Hepatocytes = test: CCK-8 cytotoxicity assay, primary male hepatocytes; assay type: cell-based; details: Hepatocyte, 72 h, 72 h treatment
Protocol: (§1) The cytotoxicity of compounds was determined by the CCK-8 assay (Cell Counting Kit-8, CK04, Dojindo Molecular Technologies, Kumamoto, Japan). Cell lines were plated at 10,000 cells/well in 96-well plates and incubated overnight to allow for adherence (5% CO2, 37 °C). […] Cells were placed back in the incubator for 72 h treatment. CCK-8 reagent was added, and plates were further incubated 1–4 h as directed by the supplier’s instructions. Optical density was measured using a Biotek Synergy H1 plate reader at 450 nm. Primary hepatocytes were plated at 30,000 cells or 50,000 cells/well and maintained according to the technical information bulletin provided by the supplier. Upon treatment, maintenance media were supplemented with 10% FBS and fresh test compound for all subsequent media changes, as directed.

HepG2 = test: CCK-8 cytotoxicity assay, HepG2; assay type: cell-based, human; details: Homo sapiens, HepG2, 72 h, 72 h treatment
Protocol: as §1

THLE-2 = test: CCK-8 cytotoxicity assay, THLE-2; assay type: cell-based; details: Homo sapiens, 72 h treatment
Protocol: as §1

SNU475 = test: CCK-8 cytotoxicity assay, SNU475; assay type: cell-based, human; details: 72 h treatment
Protocol: as §1

SNU423 = test: CCK-8 cytotoxicity assay, SNU423; assay type: cell-based; details: Homo sapiens, SNU-423, 72 h treatment
Protocol: as §1

[1] = cited from earlier work
SNU475 cells = test: Hollow fiber assay (HFA) model of AR-SV HCC; assay type: in vivo; details: for Cell viability within hollow fibers (MTT assay): nude mice
Excerpt: The hollow fiber procedures were based upon those developed by Hollingshead et al. with technical consultation kindly provided by Drs. Joanna Burdette and Dan Lantvit (University of Illinois Chicago, Chicago, IL, USA). […] In order to utilize a PO dosing approach with the HFA, we extended the traditional HFA timeline to establish angiogenesis, as noted in the literature. […] Hollow fibers (KrosFlo Implant Membranes, M138615, Repligen, Waltham, MA, USA) were filled with 3 × 10^6 SNU475 cells/mL per length and heat-sealed into 2 cm lengths on Day −1. On Day 0, three fibers were implanted into 20-week-old male outbred homozygous athymic nude mice (Foxn1^nu/Foxn1^nu, The Jackson Laboratory, Bar Harbor, ME, USA) subcutaneously parallel to the spine. Following a 14-day waiting period to allow for angiogenesis around the fibers, treatment was initiated. […] On Day 21, mice were euthanized and hollow fibers were explanted. The MTT assay was performed according to the KrosFlo Implant Membrane protocol utilizing Thiazolyl Blue Tetrazolium Bromide (M2128, MilliporeSigma, Burlington, MA, USA).

[2] = Pharmacokinetic modeling of valine pro-drug conversion to parent; assay type: in vivo, mice; details: for k el: C57BL/6, mouse, plasma, model estimate, read-out: Kel, elimination rate constant of valine conjugate (converted); for Kmet, rate constant of conversion to parent compound: Kmet = Fm × Kel; for Fraction of pro-drug converted to parent (Fm): two-compartment model estimate
Excerpt: A total of 36 mice with available PK data were included for non-linear mixed-effects analysis using NONMEM (version 7.5.0, ICON Development Solutions, Ellicott City, MD, USA), implementing the first-order conditional estimation with interaction (FOCE-I). R (version 4.2.0, R Foundation for Statistical Computing, Vienna, AUT, http://www.r-project.org) was used for visual diagnostics. […] The analyte (valine conjugate and parent compound) plasma concentration–time data were confirmed to have a biphasic distribution and elimination and were therefore fit separately to a linear two-compartment model with a depot for oral administration. Each model was parametrized in terms of clearance (CL), the volume of distribution of the central compartment (V1), intercompartmental clearance (Q), and the volume of the peripheral compartment (V3). Interindividual variability (IIV) for each parameter was assumed to be log-normally distributed, and residual variability (RUV) was described with a proportional error model. The PK parameter estimates from these independent models (parent compound or valine conjugate) were used as initial estimates for a combined model describing the conversion and disposition of the valine conjugate to the parent drug and associated metabolites. The model estimated the fraction of pro-drug converted to parent drug (Fm), which was used to calculate the first-order rate constant of metabolite formation (Kmet) = Fm × Kel. This rate constant was used to calculate the half-life of the conversion process and the amount of metabolite formed at complete conversion. The rate of metabolite formation was then calculated as the ratio of the amount of metabolite formed to the time required for complete conversion (~5 half-lives), as detailed in Figures S8–S11.

[3] = Single-dose IV and PO pharmacokinetics in mice; assay type: in vivo, male C57BL/6 mice; details: for Oral bioavailability compared to parent compound: Figure S5D; for Expected plasma levels for up to 8 h post-dose: linearly scaled from PK data, BID 75 mg/kg niclosamide, 105.7 mg/kg valine–niclosamide, 87.3 mg/kg valine–compound #7, 62.9 mg/kg compound #7; for AUC: analyte = dosed compound; for Cmax: read-out: Cmax, Geo Mean; for Tmax: read-out: Tmax, Geo Mean; for clearance: single IV dose, 2 mg/kg or molar equivalent, read-out: Systemic clearance following an IV dose (converted)
Protocol: The in-life study and quantitative analysis of plasma samples using LC/MS were performed at Charles River Laboratories, Inc. (Wilmington, MA, USA).

[4] = Two-week tolerability study; details: daily PO for 14 days
Protocol: Mice were group-housed under conditions of a constant photoperiod (12 h light/12 h dark), temperature, and humidity with ad libitum access to water and standard pelleted chow. […] Control mice were treated with the vehicle (DMSO–Cremophor EL–water, 3:15:82 by volume). Treatments were administered PO by gavage once daily for 14 days. Mouse weights were measured every 2 days. At the study endpoint, mice were euthanized approximately 2–4 h after the last dose. Blood was collected by cardiac puncture immediately after CO2 euthanasia. At necropsy, carcasses were examined for grossly visible lesions, and organ weights were measured (liver, kidneys, spleen, urogenital tract, testes, heart, lungs, brain). Whole blood and serum were submitted to the Comparative Pathology and Digital Imaging Shared Resource at the Ohio State Comprehensive Cancer Center (OSUCCC, Columbus, OH, USA) for the determination of complete blood counts and serum chemistry.

[5] = IV, 2 mg/kg (valine conjugates 2 mg/kg EQV)
[6] = IV, 2 mg/kg (valine conjugates 2 mg/kg EQV), non-compartmental analysis
[7] = PO, 40 mg/kg (valine conjugates 40 mg/kg EQV)
[8] = male, C57BL/6, mouse, plasma, iv, 2 mg/kg, IV, 2 mg/kg (valine conjugates 2 mg/kg EQV), non-compartmental analysis, read-out: AUCall, Geo Mean
[9] = male, C57BL/6, mouse, plasma, iv, 2 mg/kg, IV, 2 mg/kg (valine conjugates 2 mg/kg EQV)
[10] = male, C57BL/6, mouse, plasma, po, 40 mg/kg, PO, 40 mg/kg (valine conjugates 40 mg/kg EQV), non-compartmental analysis, read-out: AUCall, Geo Mean
[11] = male, C57BL/6, mouse, plasma, po, 40 mg/kg, PO, 40 mg/kg (valine conjugates 40 mg/kg EQV)
[12] = male, C57BL/6, mouse, plasma, po, 40 mg/kg, single PO dose, 40 mg/kg or molar equivalent, read-out: AUCall following an oral dose
[13] = male, C57BL/6, mouse, plasma, IV, 2 mg/kg (valine conjugates 2 mg/kg EQV)
[14] = male, C57BL/6, mouse, plasma, PO, 40 mg/kg (valine conjugates 40 mg/kg EQV)
[15] = BID PO one week, niclosamide 75, valine–niclosamide 106.1, valine–compound #7 87.3, compound #7 62.9 mg/kg

`CNC(=O)c1ccc(N2C(=S)N(c3ccc(C#N)c(C(F)(F)F)c3)C(=O)C2(C)C)cc1F` [Enzalutamide, enzalutamide] gave an IC50 (Primary Male Hepatocytes) greater than 30 µM.
Work on `COc1cc2nccc(Oc3ccc(NC(=O)NC4CC4)c(Cl)c3)c2cc1C(N)=O` [Lenvatinib, lenvatinib] yielded an IC50 (Primary Male Hepatocytes) greater than 30 µM, an IC50 (HepG2) greater than 30 µM and an IC50 (THLE-2) of 25.1 µM. It also gave an IC50 (SNU475; Homo sapiens, SNU-475, 72 h) of 13 µM and an IC50 (SNU423) greater than 30 µM.
For `O=C(Nc1ccc([N+](=O)[O-])cc1Cl)c1cc(Cl)ccc1O` [NEN, niclosamide ethanolamine salt], the “Plasma niclosamide concentration 4 h after oral administration” value ([1]; 40 mg/kg dose PO) is given as “roughly 0.72 µM” and the “Improvement of plasma niclosamide concentration over niclosamide” value ([1]; 4 h after oral administration) is given as “more than seven-fold”.
For `CC(=O)O[C@H]1C(=O)[C@@]2(C)[C@H]([C@H](OC(=O)c3ccccc3)[C@]3(O)C[C@H](OC(=O)[C@H](O)[C@@H](NC(=O)c4ccccc4)c4ccccc4)C(C)=C1C3(C)C)[C@]1(OC(C)=O)CO[C@@H]1C[C@@H]2O` [PTX, Paclitaxel, reference compound], the “Cell viability within hollow fibers (MTT assay)” value (SNU475 cells; 25 mg/kg IP every other day for one week) was “significant decrease in cell viability”.
With `CNC(=O)c1cc(Oc2ccc(NC(=O)Nc3ccc(Cl)c(C(F)(F)F)c3)c(F)c2)ccn1` [Regorafenib, regorafenib] the IC50 (Primary Male Hepatocytes) was greater than 30 µM, the IC50 (HepG2) was 11.9 µM and the IC50 (THLE-2) was greater than 30 µM. For the same compound, the IC50 (SNU475) was 1.63 µM, the IC50 (SNU475; Homo sapiens, SNU-475, 72 h) was 1.6 µM and the IC50 (SNU423) was 5.5 µM.
Work on `CNC(=O)c1cc(Oc2ccc(NC(=O)Nc3ccc(Cl)c(C(F)(F)F)c3)cc2)ccn1` [Sorafenib, sorafenib] yielded an IC50 (Primary Male Hepatocytes) of 5.1 µM, an IC50 (HepG2) of 10.8 µM and an IC50 (THLE-2) greater than 30 µM. For the same compound, the IC50 (SNU475) was 4.2 µM, the IC50 (SNU475; Homo sapiens, SNU-475, 72 h) was 4 µM and the IC50 (SNU423) was 6.1 µM.
With `CC(C)[C@H](N)C(=O)Oc1ccc(Cl)cc1C(=O)Nc1ccc(C(F)(F)F)cc1Cl` [valine–compound #7] the k el [2] was 0.00147 s⁻¹, the “Kmet, rate constant of conversion to parent compound” value [2] was 1.32 h⁻¹ and the “Fraction of pro-drug converted to parent (Fm)” value [2] was 25%. The “Oral bioavailability compared to parent compound” value [3] was “this was not observed”, the “HL_Lambda_z, Geo Mean” value [3, 5] was 4.20 h and the “IV: Clobs, Geo Mean” value [3, 6] was 0.01 L/h. For the same compound, the “HL_Lambda_z, Geo Mean” value [3, 7] was 6.46 h, the “PO: Cl_Fobs, Geo Mean” value [3, 7] was 0.05 L/h and the “Expected plasma levels for up to 8 h post-dose” value [3] was 3.7 µM. For the same compound, the AUC [3, 8] was 13.5 µM·h, the Cmax [3, 9] was 10.1 µM and the AUC [3, 10] was 62.1 µM·h. It also gave a Cmax [3, 11] of 7.71 µM, an AUC [3, 12] of 62.1 µM·h and a Tmax [3, 13] of 4.8 min. The Tmax [3, 14] was 75.6 min, the clearance ([3]; male, C57BL/6, mouse, plasma) was 0.167 mL/min and the “Toxicity in HFA study mice” value (SNU475 cells; 87.3 mg/kg BID PO, two mice excluded) was “apparent toxicity”. For the same compound, the “Cell viability within hollow fibers (MTT assay)” value (SNU475 cells; [15]) was “no differences in cell viability”.
For `CC(C)[C@H](N)C(=O)Oc1ccc(Cl)cc1C(=O)Nc1ccc([N+](=O)[O-])cc1Cl` [valine–niclosamide], the k el [2] was 0.000789 s⁻¹, the “Kmet, rate constant of conversion to parent compound” value [2] was 0.64 h⁻¹ and the “Fraction of pro-drug converted to parent (Fm)” value [2] was 23%. For the same compound, the “Impact on body weight” value ([4]; 14.1, 56.4, 141.0 mg/kg) was “no significant impact”, the “Impact on liver enzyme levels” value ([4]; ALT, AST, albumin) was “no significant impact” and the “Spleen weights as a percentage of body weight” value ([4]; versus vehicle) was “increase at the highest dose level”. The “Oral bioavailability compared to parent compound” value [3] was “significantly higher oral bioavailability”, the “HL_Lambda_z, Geo Mean” value [3, 5] was 1.54 h and the “IV: Clobs, Geo Mean” value [3, 6] was 0.02 L/h. For the same compound, the “Fold improvement in Cmax over orally administered niclosamide” value ([3]; PO) was 6.8 fold, the “Fold increase in systemic exposure over orally administered niclosamide” value ([3]; PO) was 14.9 fold and the “HL_Lambda_z, Geo Mean” value [3, 7] was 4.11 h. For the same compound, the “PO: Cl_Fobs, Geo Mean” value [3, 7] was 0.05 L/h, the “Fold increase in plasma levels at 4 h over niclosamide” value ([3]; PO, molar equivalent of 40 mg/kg) was “more than 16 fold” and the “Expected plasma levels for up to 8 h post-dose” value [3] was roughly 3.5 µM. For the same compound, the AUC [3, 8] was 7.52 µM·h, the Cmax [3, 9] was 11.2 µM and the AUC [3, 10] was 48.6 µM·h. The Cmax [3, 11] was 11.2 µM, the AUC [3, 12] was 48.6 µM·h and the concentration at 4 h ([3]; male, C57BL/6, mouse, plasma, po, 40 mg/kg, read-out: Plasma level at 4 h after a molar equivalent oral dose) was 3.59 µM. For the same compound, the Tmax [3, 13] was 4.8 min, the Tmax [3, 14] was 40.2 min and the clearance ([3]; male, C57BL/6, mouse, plasma) was 0.333 mL/min. The “Cell viability within hollow fibers (MTT assay)” value (SNU475 cells; [15]) was “no differences in cell viability”.
